Results from US10604509B2, “Nrf2 regulators” (GlaxoSmithKline Intellectual Property Development Limited, priority 2015, dated 2020).
Counter-ions that a name gives are not always drawn. Like-named read-outs stand apart in the source and are kept apart here.

Test system: NQO1 specific enzyme activity in BEAS-2B cells
Assay: BEAS-2B NQO1 MTT assay
Type: cell-based
Details: BEAS-2B cells, 48 hours with compound, MTT readout, read-out: EC50 of NQO1 specific activity induction
Outline: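 BEAS-2B cells treated with compound 48 h at 37° C, 5% CO2, then lysed; NQO1 activity in lysate measured kinetically by MTT cocktail at Absorbance 570 nm over 30 min. EC50 for induction from Delta OD/min versus log concentration, 3-parameter fit; Cell Titer Glo run on lysate aliquot.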

SMILES: CC[C@@H]1CN(Cc2cc([C@H](CC(=O)O)c3ccc4c(nnn4CC)c3Cl)ccc2C)Cc2ccccc2O1 [Example 56, (S)-3-(4-Chloro-1-ethyl-1H-benzo[d][1,2,3]triazol-5-yl)-3-(3-(((R)-2-ethyl-2,3-dihydrobenzo[f][1,4]oxazepin-4(5H)-yl)methyl)-4-methylphenyl)propanoic acid]
- EC50 (Homo sapiens, BEAS-2B, 48 h): 10 to 100 nM

SMILES: CCC1CN(Cc2cc(C(CC(=O)O)c3ccc4c(nnn4CC)c3C)ccc2C)Cc2ccccc2O1 (stereo not shown) [Example 69, 3-(3-((2-Ethyl-2,3-dihydrobenzo[f][1,4]oxazepin-4(5H)-yl)methyl)-4-methylphenyl)-3-(1-ethyl-4-methyl-1H-benzo[d][1,2,3]triazol-5-yl)propanoic Acid, Formic Acid Salt]
- EC50 (Homo sapiens, BEAS-2B, 48 h): 10 to 100 nM

SMILES: Cc1ccc(C(CC(=O)O)c2ccc3c(nnn3C)c2C)cc1CN1CCCC(n2cccn2)C1 (stereo not shown) [Example 9, Ammonium 3-(3-((3-(1H-pyrazol-1-yl)piperidin-1-yl)methyl)-4-methylphenyl)-3-(1,4-dimethyl-1H-benzo[d][1,2,3]triazol-5-yl)propanoate]
- EC50 (Homo sapiens, BEAS-2B, 48 h): 1000 to 10000 nM

SMILES: Cc1ccc(C(CC(=O)O)c2ccc3c(nnn3C)c2C)cc1CN(C)Cc1cccc(Br)c1 (stereo not shown) [Example 17, Ammonium 3-(3-(((3-bromobenzyl)(methyl)amino)methyl)-4-methylphenyl)-3-(1,4-dimethyl-1H-benzo[d][1,2,3]triazol-5-yl)propanoate]
- EC50 (Homo sapiens, BEAS-2B, 48 h): 1000 to 10000 nM

SMILES: CCn1cc(CCC(c2ccc(C)c(CN3Cc4cccnc4OC(C)(C)C3)c2)C(C)(C)C(=O)O)nn1 (stereo not shown) [Example 223, 3-(3-((2,2-Dimethyl-2,3-dihydropyrido[3,2-f][1,4]oxazepin-4(5H)-yl)methyl)-4-methylphenyl)-5-(1-ethyl-1H-1,2,3-triazol-4-yl)-2,2-dimethylpentanoic Acid]
- EC50 (Homo sapiens, BEAS-2B, 48 h): 1 to 10 nM

SMILES: Cc1ccc(C(c2ccc3c(nnn3C)c2C)C(C)(C)C(=O)O)cc1Cn1ccnc1CN1CCOCC1 (stereo not shown) [Example 142, 3-(1,4-Dimethyl-1H-benzo[d][1,2,3]triazol-5-yl)-2,2-dimethyl-3-(4-methyl-3-((2-(morpholinomethyl)-1H-imidazol-1-yl)methyl)phenyl) propanoic acid, trifluoroacetic acid salt]
- EC50 (Homo sapiens, BEAS-2B, 48 h): 100 to 1000 nM

SMILES: COc1ccc(CN(Cc2cc(C(CC(=O)O)c3ccc4c(nnn4C)c3C)ccc2C)C2CC2)cc1 (stereo not shown) [Example 20, 3-(3-((cyclopropyl(4-methoxybenzyl)amino)meth-yl)-4-methylphenyl)-3-(1,4-dimethyl-1H-benzo[d][1,2,3]triazol-5-yl)propanoic acid, formic acid salt]
- EC50 (Homo sapiens, BEAS-2B, 48 h): 100 to 1000 nM

SMILES: CC[C@@H]1CN(Cc2cc([C@@H](CC(=O)O)c3ccc4c(nnn4C)c3C)ccc2C)Cc2cccc(F)c2O1 [Example 60, (R)-3-(1,4-Dimethyl-1H-benzo[d][1,2,3]triazol-5-yl)-3-(3-(((R)-2-ethyl-9-fluoro-2,3-dihydrobenzo[f][1,4]oxazepin-4(5H)-yl)methyl)-4-methylphenyl)propanoic acid, Sodium salt]
- EC50 (Homo sapiens, BEAS-2B, 48 h): 10 to 100 nM

SMILES: Cc1ccc([C@@H](c2ccc3c(nnn3C)c2C)C(C)(C)C(=O)O)cc1CN1CCC[C@@H](n2cccn2)C1 [compound 184, (S)-3-(3-(((R)-3-(1H-Pyrazol-1-yl)piperidin-1-yl)methyl)-4-methylphenyl)-3-(1,4-dimethyl-1H-benzo[d][1,2,3]triazol-5-yl)-2,2-dimethylpropanoic acid]
- EC50 (Homo sapiens, BEAS-2B, 48 h): 100 to 1000 nM

SMILES: CC[C@@H]1CN(Cc2cc([C@H](CC(=O)O)c3ccc4c(nnn4CC)c3Cl)ccc2C)Cc2ccccc2O1 [Example 66, (S)-3-(4-Chloro-1-ethyl-1H-benzo[d][1,2,3]triazol-5-yl)-3-(3-(((R)-2-ethyl-2,3-dihydrobenzo[f][1,4]oxazepin-4(5H)-yl)methyl)-4-methylphenyl)propanoate, Sodium Salt]
- EC50: 10 to 100 nM
